For this test, the target named is T1, full-length MALT1 protein His-MALT1(1-824) (Homo sapiens, UniProt Q9UDY8).
T1 construct: full-length MALT1 protein His-MALT1(1-824); His (N); made in house; host or cells: baculovirus-infected insect cells
T1 sequence (Q9UDY8 1-824): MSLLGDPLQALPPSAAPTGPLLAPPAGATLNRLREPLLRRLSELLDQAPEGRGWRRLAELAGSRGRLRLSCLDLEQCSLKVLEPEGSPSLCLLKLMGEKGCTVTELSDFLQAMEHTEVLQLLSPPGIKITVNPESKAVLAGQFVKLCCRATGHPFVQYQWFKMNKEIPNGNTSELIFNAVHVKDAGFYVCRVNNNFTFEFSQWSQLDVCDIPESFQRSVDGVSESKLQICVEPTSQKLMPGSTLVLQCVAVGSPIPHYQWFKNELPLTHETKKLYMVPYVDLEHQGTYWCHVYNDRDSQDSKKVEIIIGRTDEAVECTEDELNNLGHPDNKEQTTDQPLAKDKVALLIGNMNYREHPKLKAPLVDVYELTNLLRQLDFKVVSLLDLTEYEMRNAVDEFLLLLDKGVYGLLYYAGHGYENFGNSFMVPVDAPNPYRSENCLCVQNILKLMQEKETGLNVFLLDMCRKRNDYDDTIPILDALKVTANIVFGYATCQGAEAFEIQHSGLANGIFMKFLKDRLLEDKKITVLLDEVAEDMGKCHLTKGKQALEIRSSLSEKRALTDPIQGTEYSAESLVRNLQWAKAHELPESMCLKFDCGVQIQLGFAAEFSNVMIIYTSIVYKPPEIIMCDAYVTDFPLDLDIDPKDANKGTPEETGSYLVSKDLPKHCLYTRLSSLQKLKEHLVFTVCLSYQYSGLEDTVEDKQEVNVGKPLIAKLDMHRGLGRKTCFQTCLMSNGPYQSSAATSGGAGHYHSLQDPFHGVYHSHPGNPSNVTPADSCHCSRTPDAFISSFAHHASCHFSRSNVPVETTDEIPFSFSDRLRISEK
The test is described as follows: MALT1 protease assay, Assay 2 (1 nM MALT1, Ac-LRSR-AMC substrate). It counts as biochemical. To be noted: 1 nM MALT1, 50 μM Ac-LRSR-AMC, 2 h pre-incubation, 8 hr incubation at RT. Here is the method: MALT1 protease activity was assessed in an in vitro assay using a tetrapeptide as substrate and full-length MALT1 protein His-MALT1(1-824) purified from baculovirus-infected insect cells. The tetrapeptide substrate is Ac-LRSR-AMC (SM Biochemicals) with Km measured at around 100 μM.
The final assay buffer includes 1 nM (Assay 2) or 2 nM (Assay 1) of MALT1 full-length protein, 50 μM Ac-LRSR-AMC substrate, 50 mM Tris pH 7.5, 600 mM Sodium Citrate, 1 mM DTT, 1 mM EDTA, and 0.05% BSA in 384-well plate format using black microtiter square well plates (Optiplate 384-F, Perkin Elmer).
Test compounds were dissolved in 100% DMSO at stock of 10 mM, with final DMSO concentration 0.1%. Test compounds were pre-incubated with MALT1 protein for 2 h at room temperature. Substrate was added after the pre-incubation and fluorescence signal was measured using Envision at excitation 355 nm and emission 460 nm after 8 hr incubation at RT. Increase in the assay signal was linear over this period and proportional with increase in the enzyme content.
The fluorescence units were transformed to percentage of remaining activity by using the high control (HC, median of fluorescence signal from wells containing MALT1 protein, substrate, and DMSO) and low control (LC, median of fluorescence signal from wells with substrate only) with the formula below: […]
IC50 and Hill coefficients were obtained using Graph Pad Prism (Graph Pad software, Inc, USA) with non-linear regression analysis.

Take `C[C@H](O)c1cnn(-c2ncc(NC(=O)[C@@H]3CC(C)(C)c4c3cnc3cc(Cl)nn43)cc2Cl)n1` (single isomer, unassigned) [Example 50, 2-chloro-N-(5-chloro-6-(4-(1-hydroxyethyl)-2H-1,2,3-triazol-2-yl)pyridin-3-yl)-8,8-dimethyl-7,8-dihydro-6H-cyclopenta[e]pyrazolo[1,5-a]pyrimidine-6-carboxamide]: the IC50 was at least 1000 nM.

In turn, `Cc1cc(NC(=O)C2CC(C)(C)c3c2cnc2cc(F)nn32)cnc1N1CCC1` (centres unmarked) [Example 179, N-(6-(azetidin-1-yl)-5-methylpyridin-3-yl)-2-fluoro-8,8-dimethyl-7,8-dihydro-6H-cyclopenta[e]pyrazolo[1,5-a]pyrimidine-6-carboxamide] yielded an IC50 of at least 1000 nM. As for `CC1(C)CC(O)(C(=O)Nc2cnc(-n3nccn3)c(Cl)c2)c2cnc3cc(Cl)nn3c21` (centres unmarked) [Example 69, 2-chloro-N-(5-chloro-6-(2H-1,2,3-triazol-2-yl)pyridin-3-yl)-6-hydroxy-8,8-dimethyl-7,8-dihydro-6H-cyclopenta[e]pyrazolo[1,5-a]pyrimidine-6-carboxamide], the figure is at least 1000 nM; as for `CC1(C)CC(C(=O)Nc2cnc(-n3nccn3)c(C#N)c2)c2cnn3cc(C(F)F)nc3c21` (single isomer, unassigned) [Example 197, N-(5-cyano-6-(2H-1,2,3-triazol-2-yl)pyridin-3-yl)-2-(difluoromethyl)-9,9-dimethyl-8,9-dihydro-7H-cyclopenta[d]imidazo[1,2-b]pyridazine-7-carboxamide], 10 to 100 nM; as for `CC1(C)CC(C(=O)Nc2cc(C#N)c(OC(F)F)nn2)c2cnc3cc(F)nn3c21` (centres unmarked) [Example 85, N-(5-cyano-6-(difluoromethoxy)pyridazin-3-yl)-2-fluoro-8,8-dimethyl-7,8-dihydro-6H-cyclopenta[e]pyrazolo[1,5-a]pyrimidine-6-carboxamide], 100 to 1000 nM. As for `CC1(C)C[C@H](C(=O)Nc2cc(C#N)c(OC(F)F)cn2)c2cnc3cc(F)nn3c21` (single isomer, unassigned) [Example 170], the figure is 10 to 100 nM; as for `COc1cnc(C(F)(F)F)cc1NC(=O)C1CC(C)(C)c2c1cnc1cc(F)nn21` (single isomer, unassigned) [Example 92, 2-fluoro-N-(5-methoxy-2-(trifluoromethyl)pyridin-4-yl)-8,8-dimethyl-7,8-dihydro-6H-cyclopenta[e]pyrazolo[1,5-a]pyrimidine-6-carboxamide], 100 to 1000 nM; as for `C[C@H](O)c1cnn(-c2ncc(NC(=O)[C@@H]3CC4(CCC4)c4c3cnc3cc(Cl)nn43)cc2Cl)n1` (single isomer, unassigned) [Example 159], at least 1000 nM.

Regarding `Cc1cc(NC(=O)[C@@H]2CC(C)(C)c3c2cnc2cc(Cl)nn32)cnc1-n1nccn1` (single isomer, unassigned) [Example 181], the IC50 fell in the range of 10 to 100 nM.

`CC1(C)CC(C(=O)Nc2cc(C(F)F)c(-n3nccn3)c(=O)[nH]2)c2cnc3cc(Cl)nn3c21` (centres unmarked) [Example 61, 2-chloro-N-(4-(difluoromethyl)-6-oxo-5˜(2H-1,2,3-triazol-2-yl)-1,6-dihydropyridin-2-yl)-8,8-dimethyl-7,8-dihydro-6H-cyclopenta[e]pyrazolo[1,5-a]pyrimidine-6-carboxamide] returned an IC50 of 10 to 100 nM. With `CC1(C)C[C@@H](C(=O)Nc2cc(C(F)F)c(-c3ncco3)c(=O)[nH]2)c2cnc3cc(Cl)nn3c21` (single isomer, unassigned) [Example 57, 2-chloro-N-(4-(difluoromethyl)-5˜(oxazol-2-yl)-6-oxo-1,6-dihydropyridin-2-yl)-8,8-dimethyl-7,8-dihydro-6H-cyclopenta[e]pyrazolo[1,5-a]pyrimidine-6-carboxamide] the figure was 100 to 1000 nM; with `CC1(C)C[C@@H](C(=O)Nc2ccnc(C(F)(F)F)c2)c2cnn3cc(C(F)F)nc3c21` (single isomer, unassigned) [Example 200, 2-(difluoromethyl)-9,9-dimethyl-N-(2-(trifluoromethyl)pyridin-4-yl)-8,9-dihydro-7H-cyclopenta[d]imidazo[1,2-b]pyridazine-7-carboxamide], 100 to 1000 nM.

`CC(C)(O)c1ncc(NC(=O)[C@@H]2CC3(CCC3)c3c2cnc2cc(F)nn32)cc1Cl` (single isomer, unassigned) [Example 104, N-(5-chloro-6-(2-hydroxypropan-2-yl)pyridin-3-yl)-2′-fluoro-6′,7′-dihydrospiro[cyclobutane-1,8′-cyclopenta[e]pyrazolo[1,5-a]pyrimidine]-6′-carboxamide] had a half-inhibitory concentration (IC50) of at least 1000 nM. Regarding `CC1(C)C[C@@H](C(=O)Nc2cc(C#N)c(OC(F)F)cn2)c2cnc3cc(F)nn3c21` (single isomer, unassigned) [Example 169], the half-inhibitory concentration (IC50) is at least 1000 nM. With `CC1(C)CC(C(=O)Nc2cnc(-n3nccn3)c(C#N)c2)c2cnc3cc(C(F)F)nn3c21` (single isomer, unassigned) [Example 130, N-(5-cyano-6-(2H-1,2,3-triazol-2-yl)pyridin-3-yl)-2-(difluoromethyl)-8,8-dimethyl-7,8-dihydro-6H-cyclopenta[e]pyrazolo[1,5-a]pyrimidine-6-carboxamide] the figure was 10 to 100 nM; with `C[C@@]1(C(F)(F)F)C[C@@H](C(=O)Nc2cnc(-n3nccn3)c(C(F)F)c2)c2cnc3cc(Cl)nn3c21` (single isomer, unassigned) [Example 65, 2-chloro-N-(5-(difluoromethyl)-6-(2H-1,2,3-triazol-2-yl)pyridin-3-yl)-8-methyl-8-(trifluoromethyl)-7,8-dihydro-6H-cyclopenta[e]pyrazolo[1,5-a]pyrimidine-6-carboxamide], 100 to 1000 nM. With `CC1(C)C[C@@H](C(=O)Nc2cnc(-n3nccn3)c(C#N)c2)c2cnc3cc(Cl)nn3c21` (single isomer, unassigned) [Example 106, 2-chloro-N-(5-cyano-6-(2H-1,2,3-triazol-2-yl)pyridin-3-yl)-8,8-dimethyl-7,8-dihydro-6H-cyclopenta[e]pyrazolo[1,5-a]pyrimidine-6-carboxamide] the figure was 10 to 100 nM; with `CC1(C)C[C@@H](C(=O)Nc2cc(N=S(C)(C)=O)nc(C(F)(F)F)c2)c2cnc3cc(F)nn3c21` (single isomer, unassigned) [Example 127, N-(2-((dimethyl(oxo)-λ^6-sulfaneylidene)amino)-6-(trifluoromethyl)pyridin-4-yl)-2-fluoro-8,8-dimethyl-7,8-dihydro-6H-cyclopenta[e]pyrazolo[1,5-a]pyrimidine-6-carboxamide], at least 1000 nM.

As for `Cc1nnn(-c2ncc(NC(=O)[C@H]3CC(C)(C)c4c3cnc3cc(Cl)nn43)cc2Cl)n1` (single isomer, unassigned) [Example 140, 2-chloro-N-(5-chloro-6-(5-methyl-2H-tetrazol-2-yl)pyridin-3-yl)-8,8-dimethyl-7,8-dihydro-6H-cyclopenta[e]pyrazolo[1,5-a]pyrimidine-6-carboxamide], the IC50 lay in the range of 100 to 1000 nM. In turn, `CC1(C)CC(C(=O)Nc2cnc(-c3nnn(C4COC4)n3)c(Cl)c2)c2cnc3cc(Cl)nn3c21` (centres unmarked) [Example 162, 2-chloro-N-(5-chloro-6-(2-(oxetan-3-yl)-2H-tetrazol-5-yl)pyridin-3-yl)-8,8-dimethyl-7,8-dihydro-6H-cyclopenta[e]pyrazolo[1,5-a]pyrimidine-6-carboxamide] had an IC50 of 10 to 100 nM.

The values are drawn from patent US12667572B2, “Tricyclic compounds useful in the treatment of cancer, autoimmune and inflammatory disorders” (SCHRÖDINGER, INC., priority 2021, dated 2026).
